Each structure is given as a SMILES string.

The species named for one series is Homo sapiens. The series can be described thus: Compound was evaluated for inhibition of ADP-mediated platelet aggregation. Format: functional. More on the design: concentration or dose not given beside the values.
Series [1] can be described thus: 1-Octanol/water distribution coefficient measured at 7.4. The conditions noted are these: pH 7.4. The format is physicochemical.

For the molecule `CC1CNC(C)c2cc[nH]c21` (stereo not given), the Inhibition (in general, the percentage by which the read-out fell short of the control) in the series listed under Homo sapiens is listed as 26%. Further, in series [1], the logD (as a rule, lipophilicity at a set pH, counting ionised and neutral species) is -1.08. In the series listed under Homo sapiens, `CC1CN(C)C(C)c2cc([N+](=O)[O-])[nH]c21` (stereo not given) came in with an Inhibition of 3.6%. Also, in series [1], the logD is 1.14. Taken in the same sequence, the figures for `CC1CN(C)C(C)c2cc[nH]c21` (stereo not given) were 28.5% and -0.41. On the same counts, the results for `CC1CN(C)C(C)c2cc(C=O)[nH]c21` (stereo not given) are 48% and 0.69. In the case of `C=Cn1ccc2c1CCN(Cc1ccccc1)C2`, in the series filed under Homo sapiens, the Inhibition came to 38.7%. On the same count and under the same terms, under `CCN1CCc2[nH]ccc2C1` stands 23.7%. The same measure, in the same setting: under `CC1CN(C)C(C)c2cc(CO)[nH]c21` (stereo not given) stands 3.3%. Same read-out and setting: under `CC1CN(C)C(C)c2cc(/C=N/CCO)[nH]c21` (stereo not given) stands 12.2%. In turn, `c1ccc(CN2CCc3[nH]ccc3C2)cc1` had an Inhibition in the series listed under Homo sapiens of 46.5%. For the same molecule, in series [1], the logD was found to be 1.59. In turn, `Clc1ccccc1CN1CCc2sccc2C1` [TICLOPIDINE] came in with an Inhibition in the series filed under Homo sapiens of 48.5%.

(Values after ChEMBL document CHEMBL1133077, “Pyrrolo[3,2-c]pyridine derivatives as inhibitors of platelet aggregation” (Bioorg Med Chem Lett, 2000).)
